# Data published in patent US20030130203A1, “Medicament for combating respiratory depression” (priority 2000, published 2003).
# Test system: awake male Sprague Dawley rats
# Test: Measurement of respiratory rate on the awake rat
# Format: in vivo
# Settings: i.v., measured immediately and up to 15 min
# Procedure: Measurement of Respiratory Rate on the Awake Rat
# To study the respiratory rate, awake male Sprague Dawley rats (Janvier, France) weighing 190 to 315 g were immobilized in Plexiglas tubes. For intravenous administration of the medicament solutions, the rats were each provided with a catheter in the caudal vein. The respiratory rate of the rats was measured via a water-filled balloon catheter located laterally between the rat and the Plexiglas tube. The balloon catheter was connected to a pressure sensor and a high-speed chart recorder (Gould, Dietzenbach).
# After an equilibration period of 30 minutes, a baseline value for the respiratory rate was determined. The appropriate active ingredient solution was then administered intravenously and the respiratory rate was measured immediately and after 1, 2, 5, 10 and 15 minutes. Each rat received a single administration per day.
SMILES,respiratory rate (10 mg/kg morphine only in 0.9% saline),respiratory rate (0.215 mg/kg montirelin together with 10 mg/kg morphine in 0.9% saline)
"CN1CC[C@]23c4c5ccc(O)c4O[C@H]2[C@@H](O)C=C[C@H]3[C@H]1C5 [Comparative Example 1, morphine]",marked decrease in respiratory rate,
"C[C@H]1SC[C@@H](C(=O)N[C@H](Cc2c[nH]cn2)C(=O)N2CCC[C@H]2C(N)=O)NC1=O [Example 1, montirelin]",,no decrease in respiratory rate
